Measurements taken from patent publication US7825256B2, “Inducible nitric oxide synthase dimerization inhibitors” (Kalypsys, Inc., priority 2004, dated 2010).
Structures can show the parent of a compound that is named as a salt.

molecular target: T1, hiNOS (Homo sapiens, UniProt P35228); experiment: DAN assay, hiNOS expressed in transiently transfected HEK293 cells; format: cell-based; conditions: HEK293 cells transiently transfected with hiNOS
T1 construct: expressed in transfected cells; host or cells: HEK293
In short: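 Human iNOS, nNOS or eNOS transiently expressed in HEK293 cells, with nNOS and eNOS needing added cofactors for activity. NO production is read as nitrite by fluorometry: 2,3-diaminonaphthalene forms fluorescent […], detecting 10 nM to 10 μM nitrite.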

SMILES | EC50 [µM]
CN(CCCN(Cc1ccc2c(c1)OCO2)C(=O)OC(C)(C)C)c1nc(-n2cnc(I)c2)ns1 [Example 80] | > 50
Cc1cc(CNS(=O)(=O)NCCc2ccc3c(c2)OCO3)nc(-n2ccnc2)n1 [Example 71] | < 50
CN(CCCNCc1ccc2c(c1)OCO2)c1nc(-n2cnc(I)c2)ns1 [Example 81, N′-Benzo[1,3]dioxol-5-ylmethyl-N-[3-(4-iodo-imidazol-1-yl)-[1,2,4]thiadiazol-5-yl]-N-methyl-propane-1,3-diamine] | > 50
O=C(O)CN(CCCNCc1ccc2c(c1)OCO2)c1nc(-n2ccnc2)ns1 [Example 55, [{3-[(Benzo[1,3]dioxol-5-ylmethyl)-amino]-propyl}-(3-imidazol-1-yl-[1,2,4]thiadiazol-5-yl)-amino]-acetic acid] | < 50
Cc1cc(CNC(=O)C2CCCN2Cc2ccc3c(c2)OCO3)nc(-n2ccnc2)n1 (stereo not drawn) [Example 116, 1-Benzo[1,3]dioxol-5-ylmethyl-pyrrolidine-2-carboxylic acid (2-imidazol-1-yl-6-methyl-pyrimidin-4-ylmethyl)-amide] | > 50
Cc1cc(CNC(=O)C2CCCN2Cc2ccc(OCCO)cc2)nc(-n2ccnc2)n1 (stereo not drawn) [Example 117, 1-[4-(2-Hydroxy-ethoxy)-benzyl]-pyrrolidine-2-carboxylic acid (2-imidazol-1-yl-6-methyl-pyrimidin-4-ylmethyl)-amide] | > 50
CN(CCCNCc1ccc(C(F)(F)F)cc1)c1nc(-n2ccnc2)ns1 [Example 11, N-(3-Imidazol-1-yl-[1,2,4]thiadiazol-5-yl)-N-methyl-N′-(4-trifluoromethyl-benzyl)-propane-1,3-diamine] | > 50
Cc1cc(CNC(=O)C2CCCN2Cc2ccc(F)c(F)c2)nc(-n2ccnc2)n1 (stereo not drawn) [Example 112, 1-(3,4-Difluoro-benzyl)-pyrrolidine-2-carboxylic acid (2-imidazol-1-yl-6-methyl-pyrimidin-4-ylmethyl)-amide] | > 50
CCOC(=O)CN(CCCN(C)Cc1ccc2c(c1)OCO2)c1nc(-n2ccnc2)ns1 [Example 58, [[3-(Benzo[1,3]dioxol-5-ylmethyl-methyl-amino)-propyl]-(3-imidazol-1-yl-[1,2,4]thiadiazol-5-yl)-amino]-acetic acid ethyl ester] | < 1
Cc1cc(C2CCCCN2CCN(C)Cc2ccc3c(c2)OCO3)nc(-n2ccnc2)n1 (stereo not drawn) [Example 134] | < 1
Cc1cc(C2CCCN2CCNCc2ccc3c(c2)OCO3)nc(-n2ccnc2)n1 (single isomer, unassigned) [Example 132, Benzo[1,3]dioxol-5-ylmethyl-{2-[2-(2-imidazol-1-yl-6-methyl-pyrimidin-4-yl)-pyrrolidin-1-yl]-ethyl}-amine] | < 1
CN(CC(=O)NCCc1ccc2c(c1)OCO2)c1nc(-n2ccnc2)ns1 [Example 30, N-(2-Benzo[1,3]dioxol-5-yl-ethyl)-2-[(3-imidazol-1-yl-[1,2,4]thiadiamol-5-yl)-methyl-amino]-acetamide] | < 1
CN(CCCNCc1cc2ccccc2n1C)c1nc(-n2ccnc2)ns1 [Example 19, N-(3-Imidazol-1-yl-[1,2,4]thiadiazol-5-yl)-N-methyl-N′-(1-methyl-1H-indol-2-ylmethyl)-propane-1,3-diamine] | > 50
CN(CCCNCc1ccc2c(c1)OCCO2)c1nc(-n2ccnc2)ns1 [Example 16, N′-(2,3-Dihydro-benzo[1,4]dioxin-6-ylmethyl)-N-(3-imidazol-1-yl-[1,2,4]thiadiazol-5-yl)-N-methyl-propane-1,3-diamine] | < 1
NC(=O)C1CCC(C(=O)NCCc2ccc3c(c2)OCO3)N1c1nc(-n2ccnc2)ns1 (stereo not drawn) [Example 95] | < 1
COc1ccc(CN2CCCC2C(=O)NCc2cc(C)nc(-n3ccnc3)n2)cc1O (stereo not drawn) [Example 114, 1-(3-Hydroxy-4-methoxy-benzyl)-pyrrolidine-2-carboxylic acid (2-imidazol-1-yl-6-methyl-pyrimidin-4-ylmethyl)-amide] | > 50

The next lines start with the values.

EC50 [µM] | SMILES
< 1 | CN(CCCN(C)c1nc(-n2ccnc2)ns1)Cc1ccc2c(c1)OCCO2 [Example 82, N-(2,3-Dihydro-benzo[1,4]dioxin-6-ylmethyl)-N′-(3-imidazol-1-yl-[1,2,4]thiadiazol-5-yl)-N,N′-dimethyl-propane-1,3-diamine]
< 1 | Cc1cc(C(C)(C)CNCCCc2ccc3c(c2)OCO3)nc(-n2ccnc2)n1 [Example 78, (3-Benzo[1,3]dioxol-5-yl-propyl)-{2-[2-(2H-imidazol-1-yl)-6-methyl-pyrimidin-4-yl]-2-methyl-propyl}-amine hydrochloride]
< 1 | CNC(=O)C(NC(=O)CNCc1ccc2c(c1)OCO2)c1cc(C)nc(-n2ccnc2)n1 (stereo not drawn) [Example 42, 2-{2-[(Benzo[1,3]dioxol-5-ylmethyl)-amino]-acetylamino}-2-(2-imidazol-1-yl-6-methyl-pyrimidin-4-yl)-N-methyl-acetamide]
< 1 | C[C@H](Nc1nc(-n2ccnc2)ns1)C(=O)NCCc1ccc2c(c1)OCO2 [Example 23, (S)—N-(2-Benzo[1,3]dioxol-5-yl-ethyl)-2-(3-imidazol-1-yl-[1,2,4]thiadiazol-5-ylamino)-propionamide]
< 1 | Cc1cc(C(C)N2CCC[C@@H]2C(=O)NCc2ccc3c(c2)OCO3)nc(-n2ccnc2)n1 (mixture of isomers) [Example 121, 1-[1-(2-Imidazol-1-yl-6-methyl-pyrimidin-4-yl)-ethyl]-pyrrolidine-2-carboxylic acid (benzo[1,3]dioxol-5-ylmethyl)-amide]
< 1 | COc1ccc(CNCCNC(C)c2cc(C)nc(-n3ccnc3)n2)cc1F (stereo not drawn) [Example 98, N-(3-Fluoro-4-methoxy-benzyl)-N′-[1-(2-imidazol-1-yl-6-methyl-pyrimidin-4-yl)-ethyl]-ethane-1,2-diamine]
< 1 | c1cncc(CN(CCCNCc2ccc3c(c2)OCO3)c2nc(-n3ccnc3)ns2)c1 [Example 102, N′-Benzo[1,3]dioxol-5-ylmethyl-N-(3-imidazol-1-yl-[1,2,4]thiadiazol-5-yl)-N-pyridin-3-ylmethyl-propane-1,3-diamine]
< 1 | Cc1cc(C(C)(C)NCCNCc2ccc3c(c2)OCO3)nc(-n2ccnc2)n1 [Example 77, N-1-(2-(2-(1H-Imidazol-1-yl)-6-methylpyrimidin-4-yl)propan-2-yl)-N-2-(benzo[d][1,3]dioxol-5-ylmethyl)ethane-1,2-diamine hydrochloride]
< 1 | CN(CCc1ccc2c(c1)OCCO2)CCN(C)c1nc(-n2ccnc2)ns1 [Example 84, N-[2-(2,3-Dihydro-benzo[1,4]dioxin-6-yl)-ethyl]-N′-(3-imidazol-1-yl-[1,2,4]thiadiazol-5-yl)-N,N′-dimethyl-ethane-1,2-diamine]
< 1 | N=C(CN(CCCNCc1ccc2c(c1)OCO2)c1nc(-n2ccnc2)ns1)NO [Example 63, 2-[{3-[(Benzo[1,3]dioxol-5-ylmethyl)-amino]-propyl}-(3-imidazol-1-yl-[1,2,4]thiadiazol-5-yl)-amino]-N-hydroxy-acetamidine]
< 1 | Cc1cc(CN(CC(N)=O)C(=O)NCCc2ccc3c(c2)OCO3)nc(-n2ccnc2)n1 [Example 70, (2-[3-(2-Benzo[1,3]dioxol-5-yl-ethyl)-1-(2-imidazol-1-yl-6-methyl-pyrimidin-4-ylmethyl)-ureido]-acetamide)]
